Reference: ChEMBL document CHEMBL5131538 (J Med Chem, 2022)

Assays:
[1] = Volume of distribution at steady state in Sprague-Dawley rat at 1 mg/kg, iv; type: ADME, organism-based; conditions: in vivo, read-out: Vdss
Rattus norvegicus [2] = experiment: Potency index, ratio of eplerenone ED50 to compound ED50 for antagonist activity MR in po dosed Sprague-Dawley rat assessed as reversal of aldosterone induced decrease in urinary Na+/K+ ratio; type: functional
Rattus norvegicus [3] = experiment: (§1) Organ protective activity in aldosterone-induced uninephrectomized Sprague-Dawley rat model assessed as myocardial necrosis and interstitial cellular infiltration in heart by measuring pathological lesion score at 1 mg/kg/day by sirius red and H and E staining based histological analysis (reference value: 1.7 +/- 0.3); type: functional
Rattus norvegicus [4] = experiment: as §1, with “at 10” for “at 1”; type: functional
Rattus norvegicus [5] = experiment: as §1, with “degeneration of arteries” for “myocardial necrosis”, “perivascular fibrosis” for “interstitial cellular infiltration”, “1.6” for “1.7”, “0.4)” for “0.3)”; type: functional
Rattus norvegicus [6] = experiment: Organ protective activity in aldosterone-induced uninephrectomized Sprague-Dawley rat model assessed as degeneration of arteries and perivascular fibrosis in heart by measuring pathological lesion score at 3 mg/kg/day by sirius red and H and E staining based histological analysis (reference value: 1.6 +/- 0.4); type: functional
Rattus norvegicus [7] = experiment: Organ protective activity in aldosterone-induced uninephrectomized Sprague-Dawley rat model assessed as glomerular mesangial proliferation in kidney by measuring pathological lesion score at 10 mg/kg/day by PAS and H and E staining based histological analysis (reference value: 1.9 +/- 0.5); type: functional
Rattus norvegicus [8] = experiment: Organ protective activity in aldosterone-induced uninephrectomized Sprague-Dawley rat model assessed as renal tubular regeneration in kidney by measuring pathological lesion score at 1 mg/kg/day by PAS and H and E staining based histological analysis (reference value: 1.7 +/- 0.5); type: functional
Rattus norvegicus [9] = experiment: Organ protective activity in aldosterone-induced uninephrectomized Sprague-Dawley rat model assessed as interstitial cellular infiltration in kidney by measuring pathological lesion score at 3 mg/kg/day by PAS and H and E staining based histological analysis (reference value: 1.4 +/- 0.4); type: functional
Rattus norvegicus [10] = experiment: Organ protective activity in aldosterone-induced uninephrectomized Sprague-Dawley rat model assessed as interstitial cellular infiltration in kidney by measuring pathological lesion score at 10 mg/kg/day by PAS and H and E staining based histological analysis (reference value: 1.4 +/- 0.4); type: functional
Glucocorticoid receptor = molecular target: T1, Glucocorticoid receptor (Homo sapiens, UniProt P04150); experiment: biochemical
T1 sequence (P04150 whole entry): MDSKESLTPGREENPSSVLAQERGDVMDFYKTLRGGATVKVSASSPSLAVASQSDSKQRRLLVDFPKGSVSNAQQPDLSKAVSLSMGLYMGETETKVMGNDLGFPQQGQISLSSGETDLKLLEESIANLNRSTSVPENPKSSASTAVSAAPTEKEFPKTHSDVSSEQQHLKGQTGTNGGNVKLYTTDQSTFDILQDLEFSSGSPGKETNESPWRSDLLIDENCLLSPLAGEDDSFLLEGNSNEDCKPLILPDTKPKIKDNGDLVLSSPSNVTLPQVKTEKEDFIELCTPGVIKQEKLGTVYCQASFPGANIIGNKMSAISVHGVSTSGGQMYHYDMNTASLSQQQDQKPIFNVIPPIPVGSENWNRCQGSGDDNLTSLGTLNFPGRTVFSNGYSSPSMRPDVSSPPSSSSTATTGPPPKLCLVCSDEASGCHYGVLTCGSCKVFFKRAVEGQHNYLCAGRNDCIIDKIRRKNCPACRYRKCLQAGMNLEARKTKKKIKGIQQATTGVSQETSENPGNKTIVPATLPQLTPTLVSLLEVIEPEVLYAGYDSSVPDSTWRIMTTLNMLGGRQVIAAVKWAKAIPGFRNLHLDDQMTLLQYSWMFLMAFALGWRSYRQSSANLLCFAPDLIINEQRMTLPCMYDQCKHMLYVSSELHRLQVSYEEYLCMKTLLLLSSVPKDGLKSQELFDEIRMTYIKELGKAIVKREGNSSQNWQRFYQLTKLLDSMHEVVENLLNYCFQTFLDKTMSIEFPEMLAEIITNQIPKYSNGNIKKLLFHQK
Description: Displacement of [3H]-dexamethasone from recombinant full length human glucocorticoid receptor expressed in baculovirus infected insect cells incubated overnight by liquid scintillation counting analysis

Vd [1]: 1.08 L/kg
IC50 (Glucocorticoid receptor): > 100 µM
Compound: CC1(C)Oc2cc(NS(C)(=O)=O)ccc2N(c2ccc(F)cc2)C1=O [MT-3995]
fold change (FC) (Rattus norvegicus [2]): 10
Activity (Rattus norvegicus [3]): 1.4
Activity (Rattus norvegicus [4]): 0.1
Activity (Rattus norvegicus [5]): 1.1
Activity (Rattus norvegicus [6]): 0.4
Activity (Rattus norvegicus [7]): 0
Activity (Rattus norvegicus [8]): 1.3
Activity (Rattus norvegicus [9]): 0.3
Activity (Rattus norvegicus [10]): 0.1
